In ChEMBL document CHEMBL1141658, “4-thiazolidinone--a biologically active scaffold” (Eur J Med Chem, 2008):
Values after ≈ are worked out from the molar mass of the structure shown.

How the values were obtained:
[1] = target: T1, Prostaglandin G/H synthase 2 (Mus musculus) (UniProt Q05769); assay: Inhibition of COX2 in mouse J774 cells at 10 uM; format: cell-based
T1 sequence (whole entry): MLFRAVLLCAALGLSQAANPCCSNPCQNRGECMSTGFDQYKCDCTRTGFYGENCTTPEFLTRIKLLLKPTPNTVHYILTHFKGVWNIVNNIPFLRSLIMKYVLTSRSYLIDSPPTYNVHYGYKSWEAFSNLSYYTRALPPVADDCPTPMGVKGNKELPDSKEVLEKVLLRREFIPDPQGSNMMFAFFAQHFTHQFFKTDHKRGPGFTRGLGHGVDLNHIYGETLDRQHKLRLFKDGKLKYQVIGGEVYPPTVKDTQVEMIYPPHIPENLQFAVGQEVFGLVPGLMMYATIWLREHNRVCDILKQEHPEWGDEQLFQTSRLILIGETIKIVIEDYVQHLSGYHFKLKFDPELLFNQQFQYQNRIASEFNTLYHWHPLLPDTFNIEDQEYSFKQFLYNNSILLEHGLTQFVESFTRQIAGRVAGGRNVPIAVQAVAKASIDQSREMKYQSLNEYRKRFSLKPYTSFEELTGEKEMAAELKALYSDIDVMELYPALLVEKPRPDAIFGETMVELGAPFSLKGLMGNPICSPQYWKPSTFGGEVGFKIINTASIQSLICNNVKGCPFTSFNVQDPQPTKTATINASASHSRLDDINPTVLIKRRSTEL

[2] = target: T1, Prostaglandin G/H synthase 2 (Mus musculus); assay: Inhibition of COX2 in mouse J774 cells at 1 uM; format: cell-based
[3] = system: Human immunodeficiency virus 1; assay: Antiviral activity against HIV1 3B in human MT4 cells; format: functional, organism-based; conditions: Human immunodeficiency virus 1, 3B
[4] = target: T2, Follicle-stimulating hormone receptor (Homo sapiens, UniProt P23945); assay: Agonist activity at human recombinant FSH receptor; format: functional
T2 sequence (P23945 whole entry): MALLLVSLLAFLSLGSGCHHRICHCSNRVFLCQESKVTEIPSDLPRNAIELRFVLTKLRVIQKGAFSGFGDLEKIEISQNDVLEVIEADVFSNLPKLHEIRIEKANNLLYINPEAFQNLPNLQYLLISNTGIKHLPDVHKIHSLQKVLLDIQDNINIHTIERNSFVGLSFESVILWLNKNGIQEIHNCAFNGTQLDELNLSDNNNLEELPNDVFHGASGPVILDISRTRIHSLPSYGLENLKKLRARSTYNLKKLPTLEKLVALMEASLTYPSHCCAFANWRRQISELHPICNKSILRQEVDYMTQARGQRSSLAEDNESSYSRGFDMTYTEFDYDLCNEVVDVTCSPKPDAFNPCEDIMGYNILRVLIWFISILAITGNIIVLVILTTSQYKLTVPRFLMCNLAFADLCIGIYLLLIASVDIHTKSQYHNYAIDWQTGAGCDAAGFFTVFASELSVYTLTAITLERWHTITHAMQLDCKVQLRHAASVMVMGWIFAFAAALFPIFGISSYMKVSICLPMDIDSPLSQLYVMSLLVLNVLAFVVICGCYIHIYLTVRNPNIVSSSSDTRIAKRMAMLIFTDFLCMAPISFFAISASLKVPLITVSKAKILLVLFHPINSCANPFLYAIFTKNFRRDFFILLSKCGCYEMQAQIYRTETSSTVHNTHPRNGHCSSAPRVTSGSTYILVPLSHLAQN

Candida albicans = assay: Antifungal activity against Candida albicans by serial double dilution method; format: functional
Cryptococcus neoformans = assay: Antifungal activity against Cryptococcus neoformans by serial double dilution method; format: functional
Rattus norvegicus = assay: Antiinflammatory activity against carrageenan-induced edema in po dosed Albino rat; format: functional
Alternaria alternata = assay: Inhibition of Alternaria tenuis spore germination; format: functional
Mus musculus = assay: Potentiation of pentobarbital-induced hypnosis in mouse assessed as sleeping time at 100 mg/kg relative to control; format: functional
[5] = Selectivity index, ratio of inhibition of human MT4 cells to EC50 for HIV1 3B; format: toxicity, cell-based; conditions: read-out: Selectivity Index

## CCCN1C(=O)/C(=C2\C=CC(OC)=CC2)S/C1=N\c1ccccc1
[1]
  inhibition: 55%
[2]
  inhibition: 35%

## O=C1CSC(c2c(Cl)cccc2Cl)N1Cc1ccco1 (stereo not given)
[3]
  EC50: 204 nM

## COc1ccc(C2SC(CC(=O)NCCC3=CCc4ccccc43)C(=O)N2c2ccc(C(N)=O)c(Cl)c2)cc1 (stereo not given)
[4]
  EC50: 5 µM

## CCCCCCCCCCCCN1C(=O)CSC12CCC(C(=O)C(N)Cc1ccccc1)CC2 (stereo not given)
Candida albicans
  MIC: 50 µg/mL (≈ 103 µM)
Cryptococcus neoformans
  MIC: 50 µg/mL (≈ 103 µM)

## CC1SC(c2ccccc2F)N(c2ccc(Br)cc2C(=O)O)C1=O (stereo not given)
Rattus norvegicus
  ED50: 100 mg/kg

## O=C1CS/C(=N\c2ccccc2)N1c1ncccn1
Alternaria alternata
  inhibition (INH): 100%
Mus musculus
  Time: 98.6 min

## CCCCC1C(=O)N(c2ccccc2)N(c2ccccc2)C1=O [PHENYLBUTAZONE]
Rattus norvegicus
  ED50: 94.4 mg/kg

## CCN1C(=O)C(C)S/C1=N\c1nc2cc(Cl)ccc2s1 (stereo not given)
Alternaria alternata
  inhibition (INH): 100%

## O=C1CS/C(=N\c2ccccc2)N1CCCN1CCOCC1
Alternaria alternata
  inhibition (INH): 100%
Mus musculus
  Time: 98.6 min

## CCN1C(=O)C(C)S/C1=N\c1nc2c(Cl)cccc2s1 (stereo not given)
Alternaria alternata
  inhibition (INH): 100%

## Cc1cccc(N2C(=O)CSC2c2c(Cl)cccc2Cl)n1 (stereo not given)
[5]
  selectivity ratio: 6470
